From patent US20260347403A1, “FUNGICIDAL COMPOUND” (priority 2022, published 2026)
Like-named read-outs stand apart in the source and are kept apart here. Numbered stars: 1 amine (or outer) side, 2 acyl side, 3 side chain; on linkers, the order of the positions; unused ones are H or OH. Bridge positions count the residues as written; N and C are the ends. Square brackets hold non-standard residues; d marks the D form. Peptide text beside a SMILES is read from it. * marks the point of attachment. Tridecanoyl(12-Me) = CC(C)CCCCCCCCCCC(=O)*; X1 = NC(=O)CC(O)C(N[*:1])C(=O)[*:2]; NMeF = CN[CH](Cc1ccccc1)C(=O)O; NMeN = CN[CH](CC(N)=O)C(=O)O; X2 = CCC(C)CCCCCCCCCCC(=O)*

What was measured:
Pyrenophora teres = assay: Leaf disc preventative test on barley, Pyrenophora teres (Net Blotch), 5-7 days after application; format: in vivo; settings: Table 5
Description: Leaf disks or leaf segments of various plant species were cut from plants grown in the greenhouse. The cut leaf disks, or segments were placed in multiwell plates (24-well format) onto water agar. The leaf disks were sprayed with a test solution before inoculation with the fungal spores. Compounds to be tested were prepared as DMSO solutions (max. 10 mg/ml) which were diluted to the appropriate concentration with water plus 0.025% Tween® 20 just before spraying. The inoculated leaf disks or segments were incubated under defined conditions (temperature, relative humidity, light, etc.) according to the respective test system. A single evaluation of disease level was carried out by visual evaluation 3-9 days days after inoculation, depending on the pathosystem as indicated below. Percent disease control relative to the untreated check leaf disks or segments was then calculated.
Pyrenophora teres/Barley/Leaf Disc Preventative (Net Blotch)
Barley leaf segments cv. Hasso were placed on agar in a multiwell plate (24-well format) and sprayed with the formulated test compound diluted in water. The leaf segments were inoculated with a spore suspension of the fungus 2 days after application. The inoculated leaf segments were incubated at 20 °C and 65% rh under a light regime of 12 h light/12 h darkness in a climate cabinet and the activity of a compound was assessed as disease control compared to untreated when an appropriate level of disease damage appears in untreated check leaf segments (5-7 days after application).

Pyricularia oryzae = format: cell-based; settings: concentrations in Table 8
[1] = test system: several phytopathogenic fungi; assay: Liquid culture assays, summary over the fungi tested; format: cell-based; settings: up to; Tables 2 and 3
Description: Mycelia fragments or conidia suspensions of a fungus, prepared either freshly from liquid cultures of the fungus or from cryogenic storage, were directly mixed into nutrient broth.
A stock solution for compound of Formula I(a) and Formula I(b) was produced in DMSO (max. 10 mg/ml), which was diluted with water plus 0.025% Tween®20 to produce a 10× concentrated sample and 10 μl of this solution was pipetted into a microtiter plate (96-well format). The nutrient broth containing the fungal spores/mycelia fragments was then added to give an end concentration of the tested compound. The test plates were incubated in the dark at 24 °C and 96% rh. The inhibition of fungal growth was determined photometrically after 2-7 days, depending on the pathosystem, and percent antifungal activity relative to the untreated check was calculated.
The effect of the test compound (Formula I(a), I(b) and Lipopeptin A) was tested against the following fungi under the conditions as outlined above and specifically herein below: […]

Cercospora arachidicola = assay: Liquid culture 96-well mixture assay with malonomicin, Cercospora arachidicola, 5-6 days; format: cell-based; settings: line H malonomicin alone, concentrations in Table 8
Description: A stock solution for compound of Formula I(a) was produced in DMSO (max. 10 mg/ml). Malonomicin was produced according to Law et al, 2018 (Nature Catalys is |VOL 1|DECEMBER 2018|977-984). A stock solution of malonomicin was produced in water plus 0.025% Tween® 20.
Assays to test efficacy of mixtures of the lipopeptide compound of Formula I(a) in combination with malonomicin on the control of fungal pathogens in a liquid culture assay were designed for a 96well plate as outlined in table 1:
The 96 well plate design allows to compare disease control of the mixture with disease control of the respective single compound at the same rate.
A master plate with 10× concentrated solution of the compound stock solutions diluted in water plus 0.025% Tween® 20 was prepared. The concentration of DMSO (from the stock of compound of Formula (a)) and Tween® 20 was kept constant in all cells of the master plate. 10 μl was transferred from the master plate to a 96well test plate. The nutrient broth containing the fungal spores/mycelia fragments was then added to the test plate to give an end concentration of 1× for the tested compounds (as outlined in Table 8). The test plates were incubated in the dark at 24 °C and 96% rh. […]
Cercospora arachidicola (EPPO Code: MYCOAR)
Conidia of the fungus from cryogenic storage were directly mixed into nutrient broth (PDB: potato dextrose broth).

Compound: CC(C)CCCCCCCCCCC(=O)NC1C(=O)NC(CC(=O)O)C(=O)NC(C(O)CC(N)=O)C(=O)NC(CO)C(=O)N(C)C(CC(N)=O)C(=O)N(C)C(Cc2ccccc2)C(=O)NC(CCC(N)=O)C(=O)NC(CCC(=O)O)C(=O)OC1C (centres unmarked) [Formula I(a)] ({Tridecanoyl(12-Me)}-TD[X1]S[NMeN][NMeF]QE; ester 1-C; configuration not given here)
- % reduction of fungal growth (Pyrenophora teres; 0.82 ppm): 0%
- % reduction of fungal growth (Pyrenophora teres; 2.5 ppm): 0%
- % reduction of fungal growth (Pyrenophora teres; 7.4 ppm): 0%
- % reduction of fungal growth (Pyrenophora teres; 22 ppm): 0%
- % reduction of fungal growth (Pyrenophora teres; 67 ppm): 60%
- % reduction of fungal growth (Pyrenophora teres; 200 ppm): 80%
- control of fungal growth (% reduction of growth in the test well as compared to untreated check) (Pyricularia oryzae; plate column (1): compound of Formula I(a) alone, dilution series lines A (highest) to G): 20%
- control of phytopathogenic fungi [1]: up to 100%

Compound: CCC(C)CCCCCCCCCCC(=O)NC1C(=O)NC(CC(=O)O)C(=O)NC(C(O)CC(N)=O)C(=O)NC(CO)C(=O)N(C)C(CC(N)=O)C(=O)N(C)C(Cc2ccccc2)C(=O)NC(CCC(N)=O)C(=O)NC(CCC(=O)O)C(=O)OC1C (centres unmarked) [Formula I(b)] (X2-TD[X1]S[NMeN][NMeF]QE; ester 1-C; configuration not given here)
- % reduction of fungal growth (Pyrenophora teres; 0.82 ppm): 0%
- % reduction of fungal growth (Pyrenophora teres; 2.5 ppm): 0%
- % reduction of fungal growth (Pyrenophora teres; 7.4 ppm): 0%
- % reduction of fungal growth (Pyrenophora teres; 22 ppm): 0%
- % reduction of fungal growth (Pyrenophora teres; 67 ppm): 90%
- % reduction of fungal growth (Pyrenophora teres; 200 ppm): 90%
- control of phytopathogenic fungi [1]: up to 100%

Compound: NC[C@@H]1NC(=O)C(C(=O)CC(NC(=O)[C@@H](N)CO)(C(=O)O)C(=O)O)=C1O [malonomicin, {[(2S)-2-amino-3-hydroxypropanoyl]amino}{2-[(5S)-5-(aminomethyl)-4-hydroxy-2-oxo-2,5-dihydro-1H-pyrrol-3-yl]-2-oxoethyl}malonic acid]
- control of fungal growth (% reduction of growth in the test well as compared to untreated check) (Pyricularia oryzae; plate column (2), highest malonomicin concentration, lines A-G with compound of Formula I(a) dilution series, line H malonomicin alone): 90%
- control of fungal growth (% reduction of growth in the test well as compared to untreated check) (Pyricularia oryzae; plate column (3) of malonomicin dilution series, lines A-G with compound of Formula I(a), line H malonomicin alone): 70%
- control of fungal growth (% reduction of growth in the test well as compared to untreated check) (Pyricularia oryzae; plate column (4) of malonomicin dilution series, lines A-G with compound of Formula I(a), line H malonomicin alone): 70%
- control of fungal growth (% reduction of growth in the test well as compared to untreated check) (Pyricularia oryzae; plate column (5) of malonomicin dilution series, lines A-G with compound of Formula I(a), line H malonomicin alone): 50%
- control of fungal growth (% reduction of growth in the test well as compared to untreated check) (Pyricularia oryzae; plate column (6) of malonomicin dilution series, lines A-G with compound of Formula I(a), line H malonomicin alone): 50%
- control of fungal growth (% reduction of growth in the test well as compared to untreated check) (Pyricularia oryzae; plate column (7) of malonomicin dilution series, lines A-G with compound of Formula I(a), line H malonomicin alone): 20%
- control of fungal growth (% reduction of growth in the test well as compared to untreated check) (Pyricularia oryzae; plate column (8) of malonomicin dilution series, lines A-G with compound of Formula I(a), line H malonomicin alone): 20%
- control of fungal growth (% reduction of growth in the test well as compared to untreated check) (Pyricularia oryzae; plate column (9) of malonomicin dilution series, lines A-G with compound of Formula I(a), line H malonomicin alone): 0%
- control of fungal growth (% reduction of growth in the test well as compared to untreated check) (Pyricularia oryzae; plate column (10) of malonomicin dilution series, lines A-G with compound of Formula I(a), line H malonomicin alone): 0%
- control of fungal growth (% reduction of growth in the test well as compared to untreated check) (Pyricularia oryzae; plate column (11), lowest malonomicin concentration, lines A-G with compound of Formula I(a), line H malonomicin alone): 0%
- control of fungal growth (% reduction of growth in the test well as compared to untreated check) (Cercospora arachidicola; plate column (2), highest malonomicin concentration, lines A-G with compound of Formula I(a) dilution series): 100%
- control of fungal growth (% reduction of growth in the test well as compared to untreated check) (Cercospora arachidicola; plate column (3) of malonomicin dilution series, lines A-G with compound of Formula I(a)): 90%
- control of fungal growth (% reduction of growth in the test well as compared to untreated check) (Cercospora arachidicola; plate column (4) of malonomicin dilution series, lines A-G with compound of Formula I(a)): 70%
- control of fungal growth (% reduction of growth in the test well as compared to untreated check) (Cercospora arachidicola; plate column (5) of malonomicin dilution series, lines A-G with compound of Formula I(a)): 70%
- control of fungal growth (% reduction of growth in the test well as compared to untreated check) (Cercospora arachidicola; plate column (6) of malonomicin dilution series, lines A-G with compound of Formula I(a)): 50%
- control of fungal growth (% reduction of growth in the test well as compared to untreated check) (Cercospora arachidicola; plate column (7) of malonomicin dilution series, lines A-G with compound of Formula I(a)): 50%
- control of fungal growth (% reduction of growth in the test well as compared to untreated check) (Cercospora arachidicola; plate column (8) of malonomicin dilution series, lines A-G with compound of Formula I(a)): 20%
- control of fungal growth (% reduction of growth in the test well as compared to untreated check) (Cercospora arachidicola; plate column (9) of malonomicin dilution series, lines A-G with compound of Formula I(a)): 20%
- control of fungal growth (% reduction of growth in the test well as compared to untreated check) (Cercospora arachidicola; plate column (10) of malonomicin dilution series, lines A-G with compound of Formula I(a)): 0%
- control of fungal growth (% reduction of growth in the test well as compared to untreated check) (Cercospora arachidicola; plate column (11), lowest malonomicin concentration, lines A-G with compound of Formula I(a)): 0%
